{
  "source": "patent US20200147169A1",
  "about": "“COMPOSITION COMPRISING A HIGH CONCENTRATION OF ITURIN LIPOPEPTIDES” (LIPOFABRIK, priority 2017, published 2020)",
  "assay": "Solubility of iturinic lipopeptide (mycosubtilin) alone or in compositions with surfactants; supernatant after centrifugation analysed by RP-HPLC",
  "type": "physicochemical",
  "experimental": "An iturinic lipopeptide (here mycosubtilin), having a purity (on dry matter) of between 45% and 80%, was solubilized alone in water at different concentrations and this control composition was compared to different compositions to which different surfactant compounds were added as described in the application. After 15 days of storage at 21° C., only compositions with a rheological behaviour of the fluid type and a homogeneous appearance (without flow preventing caking and/or phase shift and/or precipitation) are selected, mixed by stirring, then these compositions are centrifuged for 10 minutes at 10,000 g and the supernatant is analysed using the RP-HPLC reference method. This method makes it possible to check the solubility of the iturinic compounds that are then found in the supernatant after centrifugation.\nThe solubility of iturinic lipopeptide (here mycosubtilin) alone in an aqueous solution as a function of its concentration is shown in FIG. 1. No surfactant is added to composition 1 which contains only iturinic lipopeptides.\nThe measurement is made on the supernatant after a centrifugation step to eliminate insoluble substances.",
  "data": [
    {"substance": "mycosubtilin", "values": [
      {"measurement": "solubility of mycosubtilin", "setting": "alkylthoxyglycoside (AEG 0.4%, composition 8 of FIG. 2), 15 days at room temperature", "value": "above 30 g/L"},
      {"measurement": "iturinic compound solubility", "setting": "combination of surfactin and fengycin (composition 10 of FIG. 2), compared with fengycin or surfactin alone", "value": "even higher"},
      {"measurement": "appearance / solubility beyond the maximum concentration", "setting": "mycosubtilin alone in aqueous solution, between 5 and 25 g/L (FIG. 1)", "value": "a precipitate that settles can be observed and only a small part remains soluble"},
      {"measurement": "maximum concentration at which mycosubtilin solubilizes", "setting": "mycosubtilin alone in aqueous solution, room temperature, no surfactant (FIG. 1)", "value": 2, "unit": "g/L"},
      {"measurement": "maximum solubility of mycosubtilin", "setting": "non-ionic Simulsol and anionic Protéol, 10% each (composition 3 of FIG. 2), 15 days at room temperature", "value": 15.3, "unit": "mg/mL"},
      {"measurement": "maximum solubility of mycosubtilin", "setting": "non-ionic compound Emulsogen (0.2%) (composition 6 of FIG. 2), 15 days at room temperature", "value": 11.6, "unit": "mg/mL"},
      {"measurement": "solubility of mycosubtilin", "setting": "penthylene glycol (50%, composition 7 of FIG. 2), 15 days at room temperature", "value": "above 30 g/L"},
      {"measurement": "solubility of mycosubtilin", "setting": "presence of fengycin (10%, composition 2 of FIG. 2), 15 days at room temperature, supernatant after centrifugation", "value": "~30", "unit": "mg/mL"},
      {"measurement": "solubility of mycosubtilin", "setting": "presence of surfactin (4%, composition 9 of FIG. 2), 15 days at room temperature, supernatant after centrifugation", "value": "~30", "unit": "mg/mL"},
      {"measurement": "maximum solubility of mycosubtilin", "setting": "soy lecithin (4%) coupled with Xanthan gum (0.1%) (composition 4 of FIG. 2), 15 days at room temperature", "value": 1.5, "unit": "mg/mL"},
      {"measurement": "maximum solubility of the iturinic compound", "setting": "surfactin (4%) and non-ionic surfactant Emulsogen (0.2%) (composition 13 of FIG. 2), 15 days at room temperature", "value": 112, "unit": "mg/mL"}
    ]}
  ]
}
